In the supplement of paper PMC11061612:

Legend:
[1] = compound: C1CC(C1)(C(=O)[O-])C(=O)[O-].N.N.[Pt+2] [Carboplatin]; details: max 10 µM
Summary of the method: (§1)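 Cancer cell lines were seeded in 1536-well plates in 7.5 μl DMEM/F12 or RPMI with 10% FBS, held 24 hours at 37°C and 5% CO2, then dosed for 72 hours (final DMSO typically 0.2%). Viability was read by CellTiter-Glo 2.0 luminescence and scaled between blank-well and DMSO-well means. The single-agent IC50 comes from dose responses fitted to a two-parameter logistic curve with a non-linear mixed effects model.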

[2] = compound: C1CN(CCC1(C(=O)N[C@@H](CCO)C2=CC=C(C=C2)Cl)N)C3=NC=NC4=C3C=CN4 [AZD5363]; details: max 10 µM
Summary of the method: as §1

[3] = compound: C=CCn1c(=O)c2cnc(Nc3ccc(N4CCN(C)CC4)cc3)nc2n1-c1cccc(C(C)(C)O)n1 [AZD1775]; details: max 3 µM
Summary of the method: as §1

[4] = compound: CC(=O)Nc1cccc(-n2c(=O)n(C3CC3)c(=O)c3c(Nc4ccc(I)cc4F)n(C)c(=O)c(C)c32)c1 [Trametinib]; details: max 1 µM
Summary of the method: as §1

[5] = compound: CC(=O)O[C@H]1C(=O)[C@@]2(C)[C@H]([C@H](OC(=O)c3ccccc3)[C@]3(O)C[C@H](OC(=O)[C@H](O)[C@@H](NC(=O)c4ccccc4)c4ccccc4)C(C)=C1C3(C)C)[C@]1(OC(C)=O)CO[C@@H]1C[C@@H]2O [Paclitaxel]; details: max 3 µM
Summary of the method: as §1

[6] = compound: CC(=O)c1c(C)c2cnc(Nc3ccc(N4CCNCC4)cn3)nc2n(C2CCCC2)c1=O [Palbociclib]; details: max 10 µM
Summary of the method: as §1

[7] = compound: CC(C)n1c(=O)n(C)c2cnc3cc(F)c(-c4ccc(OCCCN5CCCCC5)nc4)cc3c21 [AZD1390]; details: max 0.3 µM
Summary of the method: as §1

[8] = compound: CC1(C)CCC(CN2CCN(c3ccc(C(=O)NS(=O)(=O)c4ccc(NCC5CCOCC5)c([N+](=O)[O-])c4)c(Oc4cnc5[nH]ccc5c4)c3)CC2)=C(c2ccc(Cl)cc2)C1 [Venetoclax]; details: max 1 µM
Summary of the method: as §1

[9] = compound: CC1=C(C(=CC=C1)Cl)NC(=O)C2=CN=C(S2)NC3=CC(=NC(=N3)C)N4CCN(CC4)CCO [Dasatinib]; details: max 2 µM
Summary of the method: as §1

[10] = compound: CC1=CN2[C@@H](C1)C=NC3=CC(=C(C=C3C2=O)OC)OCCCCCOC4=C(C=C5C(=C4)N=C[C@@H]6CC(=CN6C5=O)C)OC [SG3199]; details: max 0.001 µM
Summary of the method: as §1

[11] = compound: CCN(CCO)CCCOc1ccc2c(Nc3cc(CC(=O)Nc4cccc(F)c4)[nH]n3)ncnc2c1 [AZD2811]; details: max 1 µM
Summary of the method: as §1

[12] = compound: CCc1c2c(nc3ccc(O)cc13)-c1cc3c(c(=O)n1C2)COC(=O)[C@]3(O)CC [SN-38]; details: max 0.3 µM
Summary of the method: as §1

[13] = compound: CN(C)CCCOc1ccc(-c2ccc3ncc4c(c3c2)n(C2CCOCC2)c(=O)n4C)cn1 [AZD0156]; details: max 3 µM
Summary of the method: as §1

[14] = compound: CN(CC[C@H](CSC1=CC=CC=C1)NC2=C(C=C(C=C2)S(=O)(=O)NC(=O)C3=CC=C(C=C3)N4CCC(CC4)[C@H](C5=CC=CC=C5C6=CC=C(C=C6)Cl)O)S(=O)(=O)C(F)(F)F)CCO [AZD4320]; details: max 1 µM
Summary of the method: as §1

[15] = compound: COc1cc(Nc2ncc3c(n2)-c2ccc(Cl)cc2C(c2c(F)cccc2OC)=NC3)ccc1C(=O)O [Alisertib]; details: max 10 µM
Summary of the method: as §1

[16] = compound: COc1cc([C@@H]2c3cc4c(cc3[C@@H](O[C@@H]3O[C@@H]5CO[C@@H](C)O[C@H]5[C@H](O)[C@H]3O)[C@H]3COC(=O)[C@H]23)OCO4)cc(OC)c1O [Etoposide]; details: max 10 µM
Summary of the method: as §1

[17] = compound: COc1cc2ncnc(Nc3ccc(F)c(Cl)c3)c2cc1OCCCN1CCOCC1 [Gefitinib]; details: max 10 µM
Summary of the method: as §1

[18] = compound: COc1cccc(OCCCN)c1-c1cc(Nc2cnc(C#N)cn2)n[nH]1 [Prexasertib]; details: max 1 µM
Summary of the method: as §1

[19] = compound: COc1cccc2c1C(=O)c1c(O)c3c(c(O)c1C2=O)C[C@@](O)(C(=O)CO)C[C@@H]3O[C@H]1C[C@H](N)[C@H](O)[C@H](C)O1 [Doxorubicin]; details: max 1 µM
Summary of the method: as §1

[20] = compound: COc1nnc2ccc(N3CCC(c4ccc(OCCN5CCN(C)C(=O)[C@H]5C)cc4)CC3)nn12 [AZD5153]; details: max 1 µM
Summary of the method: as §1

[21] = compound: CS(=O)(=O)CCNCc1ccc(-c2ccc3ncnc(Nc4ccc(OCc5cccc(F)c5)c(Cl)c4)c3c2)o1 [Lapatinib]; details: max 10 µM
Summary of the method: as §1

[22] = compound: C[C@@H](Nc1cc(F)cc(F)c1)c1cc(C(=O)N(C)C)cc2c(=O)cc(N3CCOCC3)oc12 [AZD8186]
Summary of the method: as §1

[23] = compound: C[C@@H](Oc1cc(-c2cnn(C3CCNCC3)c2)cnc1N)c1c(Cl)ccc(F)c1Cl [Crizotinib]; details: max 10 µM
Summary of the method: as §1

[24] = compound: C[C@@H](c1ccc2nccn2c1)n1nnc2ncc(-c3cnn(C)c3)nc21 [Savolitinib]; details: max 1 µM
Summary of the method: as §1

[25] = compound: C[C@@H]1COCCN1C2=NC(=NC(=C2)C3(CC3)[S@](=N)(=O)C)C4=C5C=CNC5=NC=C4 [AZD6738]; details: max 10 µM
Summary of the method: as §1

[26] = compound: Cc1c2c(nn1C)CSCc1cc(n(C)n1)CSc1cc(c3ccccc3c1)OCCCc1c(C(=O)O)n(C)c3c-2c(Cl)ccc13 [AZD5991]; details: max 1 µM
Summary of the method: as §1

[27] = compound: Cc1cc2ncnn2cc1Nc1ncc2c(n1)n(C1CCOCC1)c(=O)n2C [AZD7648]; details: max 10 µM
Summary of the method: as §1

[28] = compound: Cc1nc(-c2cn3c(n2)-c2ccc(-c4cnn(C(C)(C)C(N)=O)c4)cc2OCC3)n(C(C)C)n1 [Taselisib]; details: max 10 µM
Summary of the method: as §1

[29] = compound: Cn1cnc2c(F)c(Nc3ccc(Br)cc3Cl)c(C(=O)NOCCO)cc21 [Selumetinib]; details: max 10 µM
Summary of the method: as §1

[30] = compound: N#Cc1cnc(Nc2cc(NC[C@H]3CNCCO3)c(C(F)(F)F)cn2)cn1 [SRA737]; details: max 10 µM
Summary of the method: as §1

[31] = compound: NC1(c2ccc(-c3nc4ccn5c(=O)[nH]nc5c4cc3-c3ccccc3)cc2)CCC1 [MK-2206]; details: max 10 µM
Summary of the method: as §1

[32] = compound: Nc1ccn([C@@H]2O[C@H](CO)[C@@H](O)C2(F)F)c(=O)n1 [Gemcitabine]; details: max 0.3 µM
Summary of the method: as §1

[33] = compound: O=C(Nc1ccc2[nH]nc(-c3ccncc3)c2c1)[C@@H]1CCN(CC(=O)N2CCN(c3ccc(-c4ncccn4)cc3)CC2)C1; details: max 5 µM
Summary of the method: as §1

[34] = compound: O=C(c1cc(Cc2n[nH]c(=O)c3ccccc23)ccc1F)N1CCN(C(=O)C2CC2)CC1 [Olaparib]; details: max 10 µM
Summary of the method: as §1

[35] = compound: O=c1[nH]cc(F)c(=O)[nH]1 [5-Fluorouracil]; details: max 20 µM
Summary of the method: as §1

[36] = compound: C1CN(CCC1(C(=O)N[C@@H](CCO)C2=CC=C(C=C2)Cl)N)C3=NC=NC4=C3C=CN4 [Capivasertib]; details: max 10 µM
Summary of the method: as §1

| Cell Line | IC50, cell viability 72 h [1] | IC50, cell viability 72 h [2] | IC50, cell viability 72 h [3] | IC50, cell viability 72 h [4] | IC50, cell viability 72 h [5] | IC50, cell viability 72 h [6] | IC50, cell viability 72 h [7] | IC50, cell viability 72 h [8] | IC50, cell viability 72 h [9] | IC50, cell viability 72 h [10] | IC50, cell viability 72 h [11] | IC50, cell viability 72 h [12] | IC50, cell viability 72 h [13] | IC50, cell viability 72 h [14] | IC50, cell viability 72 h [15] | IC50, cell viability 72 h [16] | IC50, cell viability 72 h [17] | IC50, cell viability 72 h [18] | IC50, cell viability 72 h [19] | IC50, cell viability 72 h [20] | IC50, cell viability 72 h [21] | IC50, cell viability 72 h ([22]; max 10 µM) | IC50, cell viability 72 h [23] | IC50, cell viability 72 h [24] | IC50, cell viability 72 h [25] | IC50, cell viability 72 h [26] | IC50, cell viability 72 h [27] | IC50, cell viability 72 h [28] | IC50, cell viability 72 h [29] | IC50, cell viability 72 h [30] | IC50, cell viability 72 h [31] | IC50, cell viability 72 h [32] | IC50, cell viability 72 h [33] | IC50, cell viability 72 h [34] | IC50, cell viability 72 h [35] | IC50, cell viability 72 h [36] | IC50, cell viability 72 h ([22]; max 3 µM) |
| --- | --- | --- | --- | --- | --- | --- | --- | --- | --- | --- | --- | --- | --- | --- | --- | --- | --- | --- | --- | --- | --- | --- | --- | --- | --- | --- | --- | --- | --- | --- | --- | --- | --- | --- | --- | --- | --- |
| Becker (Low Grade Glioma) | > 10 µM | > 10 µM | > 3 µM | > 1 µM | 0.00648 µM | > 10 µM | > 0.3 µM | > 1 µM | > 2 µM | > 0.001 µM | > 1 µM | 0.0285 µM | > 3 µM | > 1 µM | > 10 µM | > 10 µM | > 10 µM | 0.0941 µM | > 1 µM | > 1 µM | > 10 µM | 3.9 µM | > 10 µM | > 1 µM | > 10 µM | > 1 µM | > 10 µM | 3.43 µM | > 10 µM | > 10 µM | > 10 µM | > 0.3 µM | > 5 µM | > 10 µM | > 20 µM |  |  |
| CHL-1 (Melanoma) | > 10 µM | > 10 µM | 1.68 µM | > 1 µM | 0.0192 µM | > 10 µM | > 0.3 µM | > 1 µM | > 2 µM | > 0.001 µM | > 1 µM | 0.143 µM | > 3 µM | > 1 µM | > 10 µM | 8.95 µM | > 10 µM | 0.0768 µM | > 1 µM | 0.594 µM | 9.96 µM | > 10 µM | > 10 µM | > 1 µM | 2.73 µM | > 1 µM | > 10 µM | 8.26 µM | > 10 µM | > 10 µM | > 10 µM | 0.218 µM | > 5 µM | > 10 µM | > 20 µM |  |  |
| CML-T1 (Chronic Myelogenous Leukemia) | > 10 µM | 7.38 µM | 0.429 µM | 0.262 µM | 0.0048 µM | 0.222 µM | > 0.3 µM | 0.585 µM | < 0.002 µM | > 0.001 µM | > 1 µM | 0.000718 µM | > 3 µM | 0.0541 µM | 0.142 µM | 0.0926 µM | > 10 µM | 0.00627 µM | 0.0628 µM | > 1 µM | > 10 µM | > 10 µM | 0.692 µM | > 1 µM | 1.11 µM | > 1 µM | > 10 µM | > 10 µM | 4 µM | 0.588 µM | 2.05 µM | 0.0125 µM | > 5 µM | 5.75 µM | 19.5 µM |  |  |
| COLO-684 (Endometrial Carcinoma) | > 10 µM | 4.51 µM | 0.701 µM | > 1 µM | 0.558 µM | > 10 µM | > 0.3 µM | > 1 µM | > 2 µM | > 0.001 µM | > 1 µM | 0.228 µM | > 3 µM | > 1 µM | > 10 µM | > 10 µM | > 10 µM | 0.0199 µM | > 1 µM | 0.578 µM | > 10 µM | 8.93 µM | > 10 µM | > 1 µM | 4.44 µM | > 1 µM | > 10 µM | 4.2 µM | > 10 µM | 5.2 µM | 7.21 µM | 0.134 µM | > 5 µM | > 10 µM | > 20 µM |  |  |
| ES-2 (Ovarian Carcinoma) |  |  | 0.476 µM | 0.128 µM |  | > 10 µM | > 0.3 µM | > 1 µM | > 2 µM | > 0.001 µM | > 1 µM | 0.0145 µM | > 3 µM | > 1 µM | 0.596 µM |  | > 10 µM | 0.0401 µM | > 1 µM | 0.875 µM | > 10 µM |  | > 10 µM | > 1 µM | 3.78 µM | > 1 µM | > 10 µM | > 10 µM | 7.43 µM |  | 4.4 µM |  |  | > 10 µM |  | > 10 µM | > 3 µM |
